For one assay, the system named is dendritic cells. Set-up: species or system mice. The conditions noted are these: mouse, in vivo.
The test system of assay [1] is EG7 tumor. Set-up: species or system C57BL6 mice. The conditions noted are these: mouse, in vivo, sc.
The next assay deals with Gb3. Set-up: species or system mice. The settings on record: mouse, in vivo.
Assay [2] has as its system EG7 tumor. Set-up: species or system C57BL6 mice. The settings on record: mouse, in vivo, sc. The source holds these as a separate data set.
The subject of assay [3] is anti-OVA257-264 CD8^+T cells. Set-up: species or system C57BL/6 mice. The settings on record: mouse, in vivo.

Read-outs that look alike come from different tables or passages of the source.

Take Poly (I:C): in the assay on dendritic cells, the “costimulatory molecules (CD86) and MHC class II / activation of dendritic cells” value was “also activated dendritic cells”. On to `CCCCCCCCCCCCCCCCCCCCCCCCCC(=O)N[C@@H](CO[C@H]1O[C@H](CO)[C@H](O)[C@H](O)[C@H]1O)[C@H](O)[C@H](O)CCCCCCCCCCCCCC` [α-GalCer, (2S,3S,4S)-1-O-(α-D-galactopyranosyloxy)-2-hexacosanoylamino-3,4-octadecanediol], for which the “growth of EG7 tumor” value in the assay on EG7 tumor [1] is recorded as “did not control the growth of the tumor”. Moreover, the “costimulatory molecules (CD86) and MHC class II / activation of dendritic cells” value with dendritic cells is recorded as “rapid increase”. Moreover, the “membrane expression of Gb3 on dendritic and B cells” value with Gb3 is on record as “did not regulate”.

`CCCCCCCCCCCCCCCCCCCCCCCCCC(=O)N[C@@H](CC[C@H]1O[C@H](CO)[C@H](O)[C@H](O)[C@H]1O)[C@H](O)[C@H](O)CCCCCCCCCCCCCC` [C-αGalCer]: the “growth of EG7 tumor” value with EG7 tumor [2] is listed as “will not control the growth of the tumor”.

B1: OVA (protein, UniProt P01012 2-386, looked up)
Ovalbumin: GSIGAASMEFCFDVFKELKVHHANENIFYCPIAIMSALAMVYLGAKDSTRTQINKVVRFDKLPGFGDSIEAQCGTSVNVHSSLRDILNQITKPNDVYSFSLASRLYAEERYPILPEYLQCVKELYRGGLEPINFQTAADQARELINSWVESQTNGIIRNVLQPSSVDSQTAMVLVNAIVFKGLWEKAFKDEDTQAMPFRVTEQESKPVQMMYQIGLFRVASMASEKMKILELPFASGTMSMLVLLPDEVSGLEQLESIINFEKLTEWTSSNVMEERKIKVYLPRMKMEEKYNLTSVLMAMGITDVFSSSANLSGISSAESLKISQAVHAAHAEINEAGREVVGSAEAGVDAASVSEEFRADHPFLFCIKHIATNAVLFFGRCVSP
In the case of B1, the “induction of anti-OVA257-264 CD8^+T cells” value in assay [3] is “no significant induction”.

(Values after patent US8685408B2 (priority 2006, dated 2014).)
